For the assay, the target named is MAPK14 (UniProt Q16539). Briefly: Inhibition of MAPK14 Kinase Activity.

Bounds are passed on as bounds.

Chain of MAPK14 (Q16539 whole entry, looked up): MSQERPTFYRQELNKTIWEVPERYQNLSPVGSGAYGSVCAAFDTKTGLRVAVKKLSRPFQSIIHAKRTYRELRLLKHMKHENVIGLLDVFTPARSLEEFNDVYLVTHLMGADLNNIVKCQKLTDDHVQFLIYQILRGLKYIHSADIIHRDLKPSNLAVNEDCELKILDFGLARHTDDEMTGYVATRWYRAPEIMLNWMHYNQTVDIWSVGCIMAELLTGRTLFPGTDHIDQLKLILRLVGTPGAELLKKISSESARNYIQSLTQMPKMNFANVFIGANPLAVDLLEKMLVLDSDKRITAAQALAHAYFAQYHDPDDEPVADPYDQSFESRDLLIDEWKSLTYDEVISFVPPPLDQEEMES

The IC50 is the concentration that gives 50% inhibition. Low values mean greater potency, high ones weaker potency. As to `CC(C)S(=O)(=O)n1c(N)nc2ccc(-c3c(-c4ccccc4F)nc(C#C[Si](C)(C)C)n3C3CC3)cc21`, the IC50 is at most 5 µM. Then `CC(C)S(=O)(=O)n1c(N)nc2ccc(-c3nc(-c4cccc(C(F)(F)F)c4)[nH]c3-c3ccccc3)cc21`, with at most 5 µM; and `CC(C)S(=O)(=O)n1c(N)nc2ccc(-c3nc(-c4ccc(N)cc4F)[nH]c3-c3ccccc3)cc21`, with at most 5 µM. Then `CC(C)S(=O)(=O)n1c(N)nc2ccc(-c3c(-c4ccccc4)ncn3C3CCN(C(=O)OC(C)(C)C)CC3)cc21`, with at most 5 µM. The compound `CC(C)S(=O)(=O)n1c(N)nc2ccc(-c3c(-c4ccc(F)cc4F)ncn3C3CCCCC3)cc21` showed an IC50 of at most 5 µM. As for `CC(C)S(=O)(=O)n1c(N)nc2ccc(-c3nc(-c4nccs4)[nH]c3-c3ccccc3)cc21`, the IC50 is at most 5 µM. Then `CC(C)S(=O)(=O)n1c(N)nc2ccc(-c3c(-c4ccccc4)ncn3[C@@H]3CCCC[C@H]3O)cc21`, with at most 5 µM; and `CC(C)S(=O)(=O)n1c(N)nc2ccc(-c3c(-c4ccc(F)cc4)ncn3C3CCCCC3)cc21`, with at most 5 µM. The compound `CC(C)S(=O)(=O)n1c(N)nc2ccc(-c3nc(-c4ccc(NS(C)(=O)=O)cc4)[nH]c3-c3ccccc3)cc21` returned a half-maximal inhibitory concentration (IC50) of at most 5 µM. Then `CC(C)S(=O)(=O)n1c(N)nc2ccc(-c3c(-c4ccccc4F)nc(N)n3C3CC3)cc21`, with at most 5 µM; and `Cc1ccsc1-c1nc(-c2ccc3nc(N)n(S(=O)(=O)C(C)C)c3c2)c(-c2ccccc2)[nH]1`, with at most 5 µM; and `Cc1nc(-c2ccc3nc(N)n(S(=O)(=O)C(C)C)c3c2)c(-c2ccc(F)cc2F)n1Cc1ccccc1`, with at most 5 µM. For `CC(C)S(=O)(=O)n1c(N)nc2ccc(-c3nc(-c4ccccc4C(F)(F)F)[nH]c3-c3ccccc3)cc21`, the IC50 is at most 5 µM. Then `Nc1nc2ccc(-c3nc(-c4cccs4)[nH]c3-c3ccccc3)cc2[nH]1`, with at most 5 µM; and `C#Cc1nc(-c2ccccc2F)c(-c2ccc3nc(N)n(S(=O)(=O)C(C)C)c3c2)n1C1CC1`, with at most 5 µM. `CC(C)S(=O)(=O)n1c(N)nc2ccc(-c3c(-c4ccc(F)cc4)ncn3C3CCCC3)cc21` displayed an IC50 of at most 5 µM. Then `CC(C)S(=O)(=O)n1c(N)nc2ccc(-c3c(-c4ccccc4F)nc(C#CCCO)n3C3CC3)cc21`, with at most 5 µM; and `CCn1cnc(-c2ccccc2)c1-c1ccc2nc(N)n(S(=O)(=O)C(C)C)c2c1`, with at most 5 µM; and `CC(C)S(=O)(=O)n1c(N)nc2ccc(-c3c(-c4ccc(F)cc4)ncn3[C@H]3CC[C@H](O)CC3)cc21`, with at most 5 µM. On to `CC(C)S(=O)(=O)n1c(N)nc2ccc(-c3nc[nH]c3-c3cccc(F)c3F)cc21`, for which the IC50 is at most 5 µM. For `Cc1nc(-c2ccc3nc(N)n(S(=O)(=O)C(C)C)c3c2)c(-c2ccc(F)cc2F)[nH]1`, the IC50 is at most 5 µM.

In the case of `CC(C)S(=O)(=O)n1c(N)nc2ccc(-c3nn[nH]c3-c3ccccc3)cc21`, the half-inhibitory concentration (IC50) is at most 5 µM. `CC(C)S(=O)(=O)n1c(N)nc2ccc(-c3nc(C4CCN(Cc5nccn5C)CC4)[nH]c3-c3ccccc3)cc21` returned an IC50 of at most 5 µM. In turn, `Cc1nc(-c2ccccc2)c(-c2ccc3nc(N)n(S(=O)(=O)C(C)C)c3c2)s1` came in with an IC50 of at most 5 µM. `CC(C)S(=O)(=O)n1c(N)nc2ccc(-c3nc(-c4c(F)cccc4Cl)[nH]c3-c3ccccc3)cc21` came in with an IC50 of at most 5 µM. Take `CC(C)S(=O)(=O)n1c(N)nc2ccc(-c3nc(-c4ccncc4)[nH]c3-c3ccccc3)cc21`: the IC50 is at most 5 µM. Then `Cc1nc(-c2ccc3nc(N)n(S(=O)(=O)C(C)C)c3c2)c(-c2ccccc2)[nH]1`, with at most 5 µM; and `CC(C)S(=O)(=O)n1c(N)nc2ccc(-c3cc(C(C)(C)C)nn3-c3ccccc3)cc21`, with at most 5 µM; and `CC(C)S(=O)(=O)n1c(N)nc2ccc(-c3c(-c4ccccc4)ncn3CCCN3CCOCC3)cc21`, with at most 5 µM. The compound `CCc1ccc(-c2nc(-c3ccc4nc(N)n(S(=O)(=O)C(C)C)c4c3)c(-c3ccc(F)cc3)[nH]2)s1` displayed an IC50 of at most 5 µM.

With `CC(C)S(=O)(=O)n1c(N)nc2ccc(-c3c(-c4ccccc4)ncn3[C@@H]3CCCC[C@H]3CO)cc21`, the IC50 was at most 5 µM. Regarding `CC(C)S(=O)(=O)n1c(N)nc2ccc(-c3nc[nH]c3-c3ccccc3)cc21`, the IC50 was at most 5 µM. Regarding `CN(C)S(=O)(=O)n1c(N)nc2ccc(-c3nc(-c4c(F)cccc4F)[nH]c3-c3ccccc3)cc21`, the IC50 is at most 5 µM. `COc1ccc(-c2nc(-c3ccc4nc(N)n(S(=O)(=O)C(C)C)c4c3)c(-c3ccccc3)[nH]2)cc1` yielded an IC50 of at most 5 µM.

`CC(C)S(=O)(=O)n1c(N)nc2ccc(-c3c(-c4ccc(F)cc4)ncn3C3CCN(C(=O)OC(C)(C)C)CC3)cc21`: the IC50 is at most 5 µM.

`CNc1ccc(-c2nc(-c3ccc4nc(N)n(S(=O)(=O)C(C)C)c4c3)c(-c3ccccc3)[nH]2)c(F)c1` displayed an IC50 of at most 5 µM. `CC(C)S(=O)(=O)n1c(N)nc2ccc(-c3c(-c4ccccc4)nc(-c4c(F)cccc4F)n3C)cc21` registered an IC50 of at most 5 µM. Regarding `COCCn1cnc(-c2ccccc2)c1-c1ccc2nc(N)n(S(=O)(=O)C(C)C)c2c1`, the IC50 was at most 5 µM. `CC(C)S(=O)(=O)n1c(N)nc2ccc(-c3nc(-c4ccc([N+](=O)[O-])s4)[nH]c3-c3ccccc3)cc21` registered an IC50 of at most 5 µM. Then `CC(C)S(=O)(=O)n1c(N)nc2ccc(-c3c(-c4ccccc4)ncn3C3CCN(C)CC3)cc21`, with at most 5 µM; and `NCCc1nc2ccc(-c3nc(-c4c(F)cccc4F)[nH]c3-c3ccccc3)cc2[nH]1`, with at most 5 µM; and `CCn1cnc(-c2ccc(F)cc2)c1-c1ccc2nc(N)n(S(=O)(=O)C(C)C)c2c1`, with at most 5 µM. In the case of `CC(C)S(=O)(=O)n1c(N)nc2ccc(-c3c(-c4ccccc4)ncn3Cc3ccccc3F)cc21`, the 50% inhibitory concentration (IC50) was at most 5 µM.

Take `CC(C)S(=O)(=O)n1c(N)nc2ccc(-c3nc(-c4cc(F)ccc4F)[nH]c3-c3ccccc3)cc21`: the IC50 is at most 5 µM. In turn, `CC(C)S(=O)(=O)n1c(N)nc2ccc(-c3c(-c4ccccc4)ncn3C3CCNCC3)cc21` gave an IC50 of at most 5 µM. With `CC(C)S(=O)(=O)n1c(N)nc2ccc(-c3nc(-c4cc(F)cc(F)c4)[nH]c3-c3ccccc3)cc21`, the IC50 is at most 5 µM. Regarding `CC(C)S(=O)(=O)n1c(N)nc2ccc(-c3[nH]n(-c4cc(F)ccc4F)c(=O)c3-c3ccccc3)cc21`, the IC50 is at most 5 µM. Then `Nc1nc2ccc(-c3nc(-c4c(F)cccc4F)[nH]c3-c3ccccc3)cc2n1S(=O)(=O)C1CCCC1`, with at most 5 µM; and `CC(C)S(=O)(=O)n1c(N)nc2ccc(-c3nc(-c4ccc(N)cc4)[nH]c3-c3ccccc3)cc21`, with at most 5 µM. Compound `CC(C)S(=O)(=O)n1c(N)nc2ccc(-c3nc(CN(C)C)[nH]c3-c3ccccc3)cc21` returned an IC50 of at most 5 µM. `Nc1nc2ccc(-c3nc(-c4c(F)cccc4F)[nH]c3-c3ccccc3)cc2[nH]1`: the IC50 is at most 5 µM. Then `CC(C)S(=O)(=O)n1c(N)nc2ccc(-c3c(-c4ccccc4)ncn3Cc3cccc(F)c3)cc21`, with at most 5 µM; and `CC(C)S(=O)(=O)n1c(N)nc2ccc(-c3c(-c4ccccc4F)nc(-c4ccc(F)cc4F)n3C3CC3)cc21`, with at most 5 µM. As to `CC(C)S(=O)(=O)n1c(N)nc2ccc(-c3nc[nH]c3-c3cccc(F)c3)cc21`, the concentration for half-maximal inhibition (IC50) is at most 5 µM. Then `CC(C)S(=O)(=O)n1c(N)nc2ccc(-c3cn[nH]c3-c3ccccc3)cc21`, with at most 5 µM. `CC(C)S(=O)(=O)n1c(N)nc2ccc(-c3c(-c4ccccc4F)nc(Br)n3C3CC3)cc21` showed an IC50 of at most 5 µM. In turn, `CC(C)S(=O)(=O)n1c(N)nc2ccc(-c3nc(-c4ccc5c(c4)OCO5)[nH]c3-c3ccccc3)cc21` returned an IC50 of at most 5 µM. Turning to `CC(C)S(=O)(=O)n1c(N)nc2ccc(-c3nc[nH]c3-c3ccc(F)cc3)cc21`, the half-inhibitory concentration (IC50) was at most 5 µM. Consider `CC(C)S(=O)(=O)n1c(N)nc2ccc(-c3nc(-c4c(F)cccc4F)oc3-c3ccccc3)cc21`, for which the IC50 was at most 5 µM. Compound `CC(C)S(=O)(=O)n1c(N)nc2ccc(-c3nc(-c4cccnc4)[nH]c3-c3ccccc3)cc21` registered an IC50 of at most 5 µM. Then `CC(C)S(=O)(=O)n1c(N)nc2ccc(-c3c(-c4ccccc4)ncn3C3CCCCC3)cc21`, with at most 5 µM; and `Nc1ccccc1Cc1nc2ccc(-c3[nH]cnc3-c3ccccc3)cc2[nH]1`, with at most 5 µM.

Take `CC(C)S(=O)(=O)n1c(N)nc2ccc(-c3c(-c4ccc(F)cc4)ncn3C)cc21`: the IC50 is at most 5 µM.

Regarding `CC(C)S(=O)(=O)n1c(N)nc2ccc(-c3c(-c4ccccc4)ncn3C3CCN(Cc4ccccc4)CC3)cc21`, the IC50 was at most 5 µM.

As for `CC(C)S(=O)(=O)n1c(N)nc2ccc(-c3c(-c4ccccc4)ncn3CCNC(=O)OC(C)(C)C)cc21`, the IC50 is at most 5 µM. In turn, `CC(C)S(=O)(=O)n1c(N)nc2ccc(-c3[nH]n(-c4ccccc4)c(=O)c3-c3ccc(F)cc3)cc21` came in with an IC50 of at most 5 µM. As to `CC(C)S(=O)(=O)n1c(N)nc2ccc(-c3[nH]n(-c4ccc([N+](=O)[O-])cc4)c(=O)c3-c3ccc(F)cc3)cc21`, the IC50 is at most 5 µM. In turn, `CC(C)S(=O)(=O)n1c(N)nc2ccc(-c3nc(-c4cccc(OCCC5=CC=CNC=C5)c4)[nH]c3-c3ccccc3)cc21` gave an IC50 of at most 5 µM. Then `CC(C)S(=O)(=O)n1c(N)nc2ccc(-c3c(-c4ccccc4)ncn3C3CCC(O)CC3)cc21` (configuration not stated), with at most 5 µM; and `CC(C)c1nc(-c2ccc3nc(N)n(S(=O)(=O)C(C)C)c3c2)c(-c2ccccc2)[nH]1`, with at most 5 µM. `CC(C)S(=O)(=O)n1c(N)nc2ccc(-c3c(-c4ccc(F)cc4F)ncn3C)cc21`: the IC50 was at most 5 µM.

`Nc1nc2ccc(-c3nc[nH]c3-c3ccccc3)cc2[nH]1`: the IC50 was at most 5 µM. In the case of `CC(C)S(=O)(=O)n1c(N)nc2ccc(-c3nc(C4CCCCC4)[nH]c3-c3ccccc3)cc21`, the IC50 was at most 5 µM. Then `CC(C)S(=O)(=O)n1c(N)nc2ccc(-c3c(-c4ccccc4F)ncn3C3CC3)cc21`, with at most 5 µM. For the compound `COc1ccc(C2N=C3C(C)=CC=CN3C2c2ccc3nc(N)n(S(=O)(=O)C(C)C)c3c2)cc1` (configuration not stated), the concentration for half-maximal inhibition (IC50) is at most 5 µM. For the compound `CC(C)S(=O)(=O)n1c(N)nc2ccc(-c3nc(CC(C)(C)C)[nH]c3-c3ccc(F)cc3)cc21`, the IC50 is at most 5 µM. Then `CC(C)S(=O)(=O)n1c(N)nc2ccc(-c3c(-c4ccccc4)nc(-c4cccs4)n3C)cc21`, with at most 5 µM.

These data come from the Kinase Knowledgebase extract (Sharma et al. 2016).
